Where a name gives a salt, the structure may show the parent alone.
Tests used:
[1] = Aqueous solubility determined gravimetrically by slurrying in water; type: physicochemical
Description: Aqueous solubility was determined gravimetrically by slurrying Eliglustat hydrochloride from example 1 in water at 22°C. The pH of Eliglustat HCl in water was 7.6. A filtered aliquot was transferred to a pre-weighed vial and the solution evaporated.

[2] = Storage stability of the crystalline form, XRPD analysis after storage; type: physicochemical; conditions: stored for one week at 40°C / 75% relative humidity
Description: XRPD analyses were performed on crystalline eliglustat hydrochloride from example 1 using a Panalytical Xpert Pro diffractometer equipped with a Cu X-ray tube and a Pixcel detector system. The isothermal samples were analysed in transmission mode and held between low density polyethylene films. The following XRPD program was used: range 3-40°2θ, step size 0.013°, counting time 99sec, ∼22min run time.
Crystalline eliglustat hydrochloride from example 1 was stored for one week at 40°C / 75% relative humidity.

CCCCCCCC(=O)N[C@H](CN1CCCC1)[C@H](O)c1ccc2c(c1)OCCO2 [Eliglustat hydrochloride, (1R,2R)-octanoic acid[2-(2',3'-dihydro-benzo[1,4]dioxin-6'-yl)-2-hydroxy-1-pyrrolidin-1-ylmethyl-ethyl]-amide]
solubility ([1]; pH 7.6, thermodynamic from solid, water, 22°C, gravimetric, pH in water 7.6): 33 mg/mL | pH of Eliglustat HCl in water ([1]; slurry in water at 22°C): 7.6 | stability of crystalline form after storage (XRPD) [2]: remained stable with regard to its crystalline form

— EP3283483B1, “CRYSTALLINE ELIGLUSTAT HYDROCHLORIDE” (Sandoz AG, priority 2015, dated 2016)
